From US20170311607A1, “SYNERGISTIC BACILLUS THURINGIENSIS SUBSP. AIZAWAI, BACILLUS THURINGIENSIS SUBSP. KURSTAKI AND FLUBENDIAMIDE MIXTURES FOR DIAMONDBACK MOTH, SUGARCANE BORER, SOYBEAN LOOPER, AND CORN EARWORM” (Valent BioSciences LLC, priority 2016, published 2017)

Key:
diamondback moth larvae = experiment: Leaf dip efficacy and synergy test, diamondback moth larvae; assay type: in vivo; settings: Plutella xylostella, foliar, Bta/Btk 0.8125 ppm, flubendiamide 0.215 ppm, alone or in mixture
From the text: The following examples were used to determine the synergy of Bacillus thuringiensis subsp. aizawai, Bacillus thuringiensis subsp. kurstaki and flubendiamide when controlling diamondback moth, beet armyworm, sugarcane borer, soybean looper, corn earworm, cabbage looper, and southwestern corn borer. Sympatico™ emulsifiable suspension (available from Valent BioSciences LLC) was used as the source of Bacillus thuringiensis subsp. aizawai and Bacillus thuringiensis kurstaki. Sympatico™ contains about a 1:0.67 ratio of Bacillus thuringiensis subsp. kurstaki fermentation solids, spores and toxins to Bacillus thuringiensis subsp. aizawai fermentation solids, spores and toxins. Belt® was used as the source of flubendiamide. The present invention is not limited to the commercial products used in the examples. […]
For these tests, standardized laboratory leaf dip methods were used to inoculate plant material with treatment(s). […] Synergy ratings were calculated for each test. […]
In order to determine synergy, rates below normal field rate ranges must be used. If normal field rate ranges are used, all of the larvae would die (combining a lethal or near lethal dose of Bacillus thuringiensis subsp. aizawai and Bacillus thuringiensis subsp. kurstaki with a lethal dose of flubendiamide would most likely lead to larvae death) in every treatment and synergy would not be able to be determined. […]

[1] = tested on: southwestern corn borer larvae; experiment: Leaf dip efficacy and synergy test, southwestern corn borer larvae; assay type: in vivo; settings: foliar, Bta/Btk 0.8125 ppm, flubendiamide 0.39 ppm, alone or in mixture
From the text: (§1) The following examples were used to determine the synergy of Bacillus thuringiensis subsp. aizawai, Bacillus thuringiensis subsp. kurstaki and flubendiamide when controlling diamondback moth, beet armyworm, sugarcane borer, soybean looper, corn earworm, cabbage looper, and southwestern corn borer. Sympatico™ emulsifiable suspension (available from Valent BioSciences LLC) was used as the source of Bacillus thuringiensis subsp. aizawai and Bacillus thuringiensis kurstaki. Sympatico™ contains about a 1:0.67 ratio of Bacillus thuringiensis subsp. kurstaki fermentation solids, spores and toxins to Bacillus thuringiensis subsp. aizawai fermentation solids, spores and toxins. Belt® was used as the source of flubendiamide. The present invention is not limited to the commercial products used in the examples. In each example below, the studies were conducted as follows.
(§2) For these tests, standardized laboratory leaf dip methods were used to inoculate plant material with treatment(s). Dry, treated leaves were placed into Petri dishes (100×25 mm) containing filter paper wetted with 500 μl of distilled H2O (“dH2O”). Each dish was then infested with between 5 and 10 larvae, dependent on species. Efficacy ratings were taken at specified intervals. Synergy ratings were calculated for each test. […]

sugarcane borer larvae = experiment: Leaf dip efficacy and synergy test, sugarcane borer larvae; assay type: in vivo; settings: Diatraea saccharalis, foliar, Bta/Btk 0.8125 ppm, flubendiamide 2.15 ppm, alone or in mixture
From the text: as §1, §2

soybean looper larvae = experiment: Leaf dip efficacy and synergy test, soybean looper larvae; assay type: in vivo, Chrysodeixis includens; settings: foliar, Bta/Btk 0.26 ppm, flubendiamide 3.9 ppm, alone or in mixture
From the text: as §1, §2

beet armyworm larvae = experiment: Leaf dip efficacy and synergy test, beet armyworm larvae; assay type: in vivo; settings: Spodoptera exigua, foliar, Bta/Btk 0.8125 ppm, flubendiamide 0.49 ppm, alone or in mixture
From the text: as §1, §2

corn earworm larvae = experiment: Leaf dip efficacy and synergy test, corn earworm larvae; assay type: in vivo; settings: Helicoverpa zea, foliar, Bta/Btk 2.6 ppm, flubendiamide 0.975 ppm, alone or in mixture
From the text: as §1, §2

cabbage looper larvae = experiment: Leaf dip efficacy and synergy test, cabbage looper larvae; assay type: in vivo; settings: Trichoplusia ni, foliar, Bta/Btk 0.8125 ppm, flubendiamide 0.49 ppm, alone or in mixture
From the text: as §1, §2

Cc1cc(C(F)(C(F)(F)F)C(F)(F)F)ccc1NC(=O)c1cccc(I)c1C(=O)NC(C)(C)CS(C)(=O)=O [Flubendiamide, 3-iodo-N′-(2-mesyl-1,1-dimethylethyl)-N-{4-[1,2,2,2-tetrafluoro-1-(trifluoromethyl)ethyl]-o-tolyl}phthalamide]
Emax at 0.215 ppm (diamondback moth larvae; 24 h after treatment): 4%
Emax at 0.215 ppm (diamondback moth larvae; 48 h after treatment): 42%
Emax at 0.39 ppm ([1]; 24 h after treatment): 49%
Emax at 0.39 ppm ([1]; 48 h after treatment): 51%
Emax at 2.15 ppm (sugarcane borer larvae; 24 h after treatment): 24%
Emax at 2.15 ppm (sugarcane borer larvae; 48 h after treatment): 33%
Emax at 3.9 ppm (soybean looper larvae; 24 h after treatment): 13%
Emax at 3.9 ppm (soybean looper larvae; 48 h after treatment): 38%
Emax at 0.49 ppm (beet armyworm larvae; 24 h after treatment): 10%
Emax at 0.49 ppm (beet armyworm larvae; 48 h after treatment): 23%
Emax at 0.975 ppm (corn earworm larvae; 24 h after treatment): 33%
Emax at 0.975 ppm (corn earworm larvae; 48 h after treatment): 33%
Emax at 0.49 ppm (cabbage looper larvae; 24 h after treatment): 9%
Emax at 0.49 ppm (cabbage looper larvae; 48 h after treatment): 65%
